Laboratory results: publication PMC12311895, “Single-Molecule Protein Interactions and Unfolding Revealed by Plasmon-Enhanced Fluorescence” (Analytical Chemistry, 2025)

Tests used:
[1] = system: PDZ (MBP-PDZ immobilized on gold nanorods); test: urea-mediated unfolding/refolding of immobilized PDZ, read out by peptide binding kinetics; format: biochemical
Excerpt: Next, we employed the platform to monitor protein unfolding and refolding. […] After validating that the observed event rate decrease was not caused by protein dissociation from the GNPs (Supplementary Figure 8), we next characterized the concentration dependency of this urea-mediated PDZ unfolding (Figure B). The protein-peptide binding frequency, and thus PDZ conformational integrity, clearly decreases in a urea concentration-dependent manner.
3 Urea-mediated PDZ denaturation. […] (B) Left/blue data points: PDZ-peptide binding event frequencies at different urea concentrations. To prevent cumulative and/or time-mediated influences, measurements at each concentration were performed with a fresh sample. Error bars represent the effect of each sample’s Poisson distribution of the number of proteins per particle on the average binding frequencies. Right/green data points: PDZ-peptide binding event frequencies of a similar sample, after incubation at 6.4 M urea and subsequent removal thereof. (C) Bright-time distribution of the PDZ-peptide binding events at different urea concentrations. […] The 95% confidence interval is obtained by propagating 1.96 SE of the corresponding tb fits.
5 minute steps at 5000 rpm each). After each centrifugation step, supernatants were discarded, and pellets were re-dissolved (200 µL of 25 mM HEPES (pH 7.4) after the first spin step, 200 µL of milliQ after step 2 and 3, and 150 µL of 10 mM HEPES (pH 7.4) + 0.0025 w/v% Tween20 + 1 mM MgCl2 after step 4.
For each reaction, 5.0 µL of protein-DNA conjugate was added to a 150 µL particle solution as prepared above. Added protein-DNA concentrations varied from 250 pM to 2 µM depending on the desired number of proteins per particle.
Reactions were either incubated for 2 hours at room temperature (~21 °C), or overnight in the fridge (4 °C). After incubation, 1.5 µL of 20 w/v% BSA in PBS was added to each sample, following an additional 15 minutes of incubation.
Next, samples were washed using 4 centrifugal steps (5 minutes at 5000 rpm and 4 °C each). After each spin step, supernatants were removed, and particles were re-suspended using 10 mM HEPES pH 7.4, 0.0025 w/v% Tween20, 1 mM MgCl2, 0.2 w/v% BSA (150 µL after step 1-3, 75 µL after step 4).
Functionalized gold nanoparticle concentrations were determined through absorption measurements on a Thermo Scientific Nanodrop 2000 apparatus. Fluorescence spectroscopy-based protein quantifications were performed through fluorescence measurements on a Varioskan Lux platereader (500 nm excitation, 12nm bandwidth, low dynamic range, […]
Sample preparation for microscopy measurements
Glass microscopy slides (Menzel #1.5 24*40 mm) were sonicated in MeOH for 15 minutes, and blown dry using nitrogen gas afterwards. Next, slides were plasma treated for 1 minute. Imaging spacer stickers were added to the cleaned glass slides. Particles were diluted to OD = 0.1 (at 650 nm, 1 cm pathlength) in PBS, and for each sample 50 µL was pipetted into the imaging spacer. Samples were incubated for at least 5 minutes, after which the majority of particles were firmly immobilized. Depending on the measurement, samples were used as described, or briefly washed with PBS (unfolding/refolding measurements).
Fluorescence microscopy measurements
Samples were measured through fluorescence microscopy. The utilized setup’s main components consi sted of a Coherent OBIS 637 nm laser, Nikon eclipse Ti2 microscope body, Apo TIRF 60x 1.49 NA DIC N2 Oil objective, and Prime BSI Express CMOS camera. All measurements were performed using TIRF illumination. Sample and imaging conditions […]
Table S.2. Sample and imaging conditions per experiment.
Experiment/associated Laser power (mW): Exposure (ms): Labeled peptide
Figure(s): concentration (nM):
Kinetic analysis – 50 20 1 dissociation kinetics. Figure
Kinetic analysis: association 50 60 1 […]
Peptide and urea solutions were all prepared in PBS. […]

[2] = system: ATTO 532-PDZ decorated gold nanoparticles; test: stability of GNP-protein conjugate to urea (fluorescence of ATTO 532-PDZ on particles); conditions: 4 M urea, 15 minutes, then exchanged for PBS; five particles, 532 nm laser
Method: Supplementary Figure 7. Fluorescence polarization curve of the interaction between MBP-PDZ (no DNA attached) ௣ ) + Aଶ , yields a Kd (x0) of 0.2 µM (p set to 1 and ATTO 655-labeled peptide. The fit (y =((Aଵ −Aଶ )/(1 + ቀ[௣௥௢௧௘௜௡ ]௄೏ ቁ to represent 1:1 binding). Measurement performed with 10 nM peptide in 10 mM HEPES pH 7.4, 150 mM NaCl, 0.1 v/v% Tween 20, 0.1 w/v% BSA, 1 mM DTT.
Supplementary Figure 8. Mean fluorescence intensities of five ATTO 532- PDZ decorated gold nanoparticles before and after exposure to 4 M urea. Immobilized particles were briefly imaged with a 532 nm laser before exposure to urea, with bare PBS in the bulk solution. Next, the laser was turned off, urea was added towards 4 M, and the sample was incubated for 15 minutes. Afterwards, the urea solution was exchanged for fresh PBS, the laser turned on, and fluorescence intensities measured again.
ATTO 532-labeled PDZ proteins remained on the particles.
(also on this page, place not known: inte raction =( (Aଵ −A ଶ)/(1 ቀ [௣௥௢௧௘௜௡] ௄೏ 350Polarization (mP) P1, before P1, after P2, before P2, after P3, before P3, after P4, before P4, after P5, before P5, after 8000Mean fluorescence intensity (counts))

[3] = biological target: T1, Erbin PDZ (MBP-PDZ immobilized on gold nanorods via DNA) (Homo sapiens, UniProt Q96RT1); test: single-molecule plasmon-enhanced fluorescence binding kinetics of PDZ-peptide interaction
T1 construct: Since neither the utilized PDZ domain nor MBP contains natural cysteines; single introduced cysteine in the linker between MBP and PDZ (handle for DNA coupling); host or cells: E. coli BL21(DE3)
T1 sequence (Q96RT1 1321-1410 limits assumed): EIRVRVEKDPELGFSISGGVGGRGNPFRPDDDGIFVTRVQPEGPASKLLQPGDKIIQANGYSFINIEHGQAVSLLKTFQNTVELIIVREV

[4] = unspecific binding of labeled peptide to DNA-coated gold nanoparticles without protein (negative control); conditions: DNA decorated, 0 proteins per particle; 60 ms exposure, 1 nM labeled peptide in PBS
Excerpt: 2 Characterization of the PDZ-peptide binding interactions. (A) Typical microcopy FOV of the immobilized gold nanoparticles. Each FOV (∼ 43 μm by 43 μm) typically contains around 100 stochastically immobilized particles, yielding average interparticle distances of several micrometers. A time trace of one of the gold nanoparticles is shown, on which the peptide–protein binding events can be seen as fluorescence bursts. An expanded region of the time trace showcases a few examples of individual bright-times and dark-times. (B) Typical signals obtained from peptide binding on a gold nanorod (blue) and on the glass (red). (C) Plot depicting the distribution of bright times (bound-state lifetimes) of the protein-peptide interactions, based on all recorded particles. […]
In order to quantify association kinetics and related particle-to-particle differences, analysis is based on the average dark time (t d ) in between events (unbound-state lifetime). […] The binding event frequency’s dependency on the number of proteins per particle was assessed through several measurements, using particle preparations with different average numbers of proteins per particle (Figure .D). […] Dim fluorescence signals that would have been lost in unenhanced studies can now readily be detected, giving rise to more accurate event detection, and thus, a more representative k on value.

[5] = system: PDZ directly conjugated to gold nanorods; test: peptide binding to PDZ conjugated directly to gold nanorods via a cysteine linker; conditions: direct conjugation to gold nanorods via cysteine linker, no DNA
Excerpt: In this study we utilize single-crystalline GNPs (nanorods) to probe protein–protein interactions at the single-molecule level. To facilitate single-molecule studies the particles are immobilized onto a glass coverslip to enable the imaging of single nanoparticles. Before immobilization, we conjugated protein (PDZ) to the nanoparticles using a solution-phase protocol. We initially tried direct conjugation of PDZ to the gold nanorods via a cysteine linker. […] We then developed a DNA-mediated conjugation approach. This approach, through the rigid nature of double-stranded DNA, allows for control over the time-average distance between the proteins and the GNPs. This controlled distance is crucial, as it prevents a direct interaction between the protein and the gold, thereby preventing denaturation. Moreover, it still allows the proteins to be placed close to the gold nanorods, which facilitates potent fluorescence enhancement of the fluorescently labeled binding partners (Supplementary Figure 1).

PDZ = conditions: reference number not printed at place (probably ref 20), cited from earlier work
Excerpt: From a double-exponential fit we extracted characteristic bound-state lifetimes of 16 ± 1 and 83 ± 16 ms, corresponding to k off values of 61 ± 5 and 12 ± 3 s^–1. The slow dissociation rate constant is similar to previously reported values for the same interaction with immobilized peptides (k off ≈ 6.3 s^–1). […] The underlying molecular mechanism leadi ... || In order to quantify association kinetics and related particle-to-particle differences, analysis is based on the average dark time (t d ) in between events (unbound-state lifetime). Together with the number of proteins per particle (n), and the concentration of the labeled peptide solution (c i ), it follows that kon=1/tdcin . The binding event frequency’s dependency on the number of proteins per particle was assessed through several measurements, using particle preparations with different average numbers of proteins per particle (Figure .D). Herein, a control sample (DNA decorated, 0 proteins ...

Compound	average PDZ-peptide binding event frequency at 0.2 M urea ([1]; 0.2 M urea, 2 nM labeled peptide in PBS, within Poisson distribution)	time for refolding of PDZ after urea removal ([1]; after 6.4 M urea, time required for fluid exchange and initiation of imaging) [min]	k off values at different urea concentrations ([1]; based on dominant short lifetimes of double exponential fits, 2 nM labeled peptide in PBS, 40 ms exposure)	bound-state lifetimes for increasing urea concentrations ([1]; bright time distributions, 2 nM labeled peptide in PBS, 40 ms exposure)	PDZ-peptide binding frequency after removal of urea (refolding) ([1]; pre-incubation with 6.4 M urea for 20 minutes, then washed, 2 nM labeled peptide in PBS)	occurrence of PDZ-peptide interactions at 4.0 M urea ([1]; time traces of a particle before and after 4.0 M urea, 2 nM labeled peptide in PBS)	fluorescence intensity of ATTO 532-PDZ decorated particles after urea exposure [2]	distribution of bound-state lifetimes ([3]; all particles (Figure 2C), also on single particles (Supplementary Figure 6))	characteristic bound-state lifetime, short component ([3]; double-exponential fit of bright times, all recorded particles, 20 ms exposure, 50 mW 637 nm laser, TIRF, 1 nM labeled peptide in PBS) [ms]	characteristic bound-state lifetime, long component ([3]; double-exponential fit of bright times, all recorded particles, 20 ms exposure, 50 mW 637 nm laser, TIRF, 1 nM labeled peptide in PBS, less frequent events) [ms]	k on ([3]; linear fit of event frequency vs average number of proteins per particle, kon=1/tdcin, 60 ms exposure, 50 mW, 1 nM labeled peptide in PBS)	slope of binding event frequency vs number of proteins per particle ([3]; linear fit, intercept 0, 60 ms exposure, 1 nM labeled peptide in PBS) [mHz/protein]	event frequency on control particles (unspecific binding) [4] [mHz]	peptide binding of directly conjugated PDZ [5]	k on (previously reported) (PDZ; PAINT experiments)	k off (previously reported) (PDZ; same interaction with immobilized peptides, integration time 60 ms)
NC(N)=O [urea]	slight increase	≤ 1	no significant deviations	did not significantly change	recovered toward initial levels	terminates the occurrence of PDZ-peptide interactions	no reduced fluorescence intensities									
H-[C(ATTO655)]GAGRGSIDTWV-OH [ATTO 655-labeled peptide, Atto-655 labeled peptide purchased from SB Peptide]								double exponential	16 ± 1	83 ± 16	(1.2 ± 0.1) × 10^7 M^–1 s^–1	12	2	no peptide binding	≈ 3.6 × 10^5 M^–1 s^–1	≈ 6.3 s^–1
